{"source": "patent US20260335279A1", "about": "“METHODS OF TREATING ISCHEMIA-REPERFUSION INJURIES” (University of Cincinnati, priority 2022, published 2026)", "key": {"Glut1": {"tested_on": "Glut1", "assay": "Glut1 mRNA after I/R", "type": "in vivo, mouse", "details": "ML-264 treatment; vs I/R group treated with vehicle", "method": "(§1) The myocardial ischemia/reperfusion surgical protocol was applied as follows. Mice were anesthetized with 2% isoflurane inhalation until anesthesia was achieved. The animals' body temperature was maintained at 37 °C throughout the surgical procedure using a heating pad. A tracheal tube was placed via tracheal intubation and the respiration rate was set at 150 strokes/min with a tidal volume of 200 μL, using Minivent ventilator for mice (Model 845, Harvard Apparatus). A 1.2 cm incision was made over the left chest. After retraction of the pectoral major and minor muscles, the fourth intercostal space was exposed. […] The mouse was then monitored during the recovery period, which was generally completed within 3 to 5 minutes. […]\n(§2) Total RNA was purified from heart tissue using the TRIzol reagent according to the instructions of the manufacturer (ThermoFischer Scientific, Cat. No.: 15596018). cDNA synthesis was performed using the Applied Biosystems High Capacity cDNA Reverse Transcription Kit (ThermoFischer Scientific, Cat. No.: 4368814) from 500 ng RNA, which had been treated with DNAase I (ThermoFischer Scientific, Cat. No.: 18068015). Quantitative real-time PCR was performed with the SYBR Select Master Mix (ThermoFischer Scientific, Cat. No.: 4472903) using the manufacturer's recommendations. […]"}, "[1]": {"tested_on": "myocardial ischemia-reperfusion injury in mice", "assay": "Infarct size evaluation upon Evans Blue/TTC staining after myocardial I/R", "type": "in vivo, mouse (C57BL/6)", "details": "ML264 25 mg/kg/12 h intraperitoneal; 30 min ischemia, 24 h reperfusion; vs vehicle", "method": "(§3) The myocardial ischemia/reperfusion surgical protocol was applied as follows. Mice were anesthetized with 2% isoflurane inhalation until anesthesia was achieved. The animals' body temperature was maintained at 37 °C throughout the surgical procedure using a heating pad. A tracheal tube was placed via tracheal intubation and the respiration rate was set at 150 strokes/min with a tidal volume of 200 μL, using Minivent ventilator for mice (Model 845, Harvard Apparatus). A 1.2 cm incision was made over the left chest. After retraction of the pectoral major and minor muscles, the fourth intercostal space was exposed. […] The left anterior descending coronary artery (LAD) was then located, sutured, and ligated at a site 3-4 mm distal to the origin of the artery under the left atrium using a 6-0 silk suture. The heart was allowed to stabilize for 15 min and right after, ischemia was induced by tightening the suture against a small piece of polyethylene tube. At the end of the 30-minute ischemia period, the ligature was released for the induction of reperfusion, and then the manual evacuation of air and closure of muscle and skin were performed. The mouse was then monitored during the recovery period, which was generally completed within 3 to 5 minutes. Sustain-released buprenorphine (BupSR, 0.5 mg/kg body weight) was provided by subcutaneous injection. Mice were then left to recover until the end of the reperfusion (2 hours, 12 hours, 24 hours, or 4 weeks). The sham group underwent the same surgical procedure except that the LAD was not occluded.\nDouble staining of the heart with Evans Blue dye and Triphenyl-Tetrazolium Chloride (TTC) solution was employed for infarct size measurements. Mice were anesthetized upon 3% isoflurane inhalation. The thorax was cut and opened, and hearts were gently excised. Then, the aorta was cannulated and perfused with 5 mL of normal saline. The suture was re-tightened and Evans Blue solution (2.5% in WFI) was slowly infused through the aorta, to differentiate the ischemic part of the myocardium from the non-occluded, normally perfused area. The hearts were sliced into 1-2 mm sections immediately following. The heart slices were incubated with TTC solution (1% in PBS, pH=7.4) at 37 °C for 20 min. In this way, the necrotic area is delimited as a white area, while the viable tissue is stained red. […] The overall size of each slice (All/A), the area-at-risk (R), and the infarct area (I) were determined in a blinded manner for each slice using ImageJ software, and the percentages of Area at Risk (R/A) % and I/R % were calculated. […]\nAdministration of these two compounds was performed 5 minutes before the reopening of the coronary artery and infarct size was assessed upon 30 minutes of ischemia followed by 24 hours of reperfusion therapy."}, "[2]": {"tested_on": "myocardial ischemia-reperfusion injury in mice", "assay": "Speckle tracking echocardiography in murine myocardial ischemia-reperfusion injury", "type": "in vivo, mouse (C57BL/6)", "details": "30 min ischemia, 24 h reperfusion; 25 mg/kg/12 h intraperitoneal; vs vehicle", "method": "Cardiac function was assessed by transthoracic echocardiography using the VisualSonics Vevo F2 system (VisualSonics, Toronto, ON). Sedation was induced by 3% isoflurane and maintained at 0.5% isoflurane during the procedure, during which the animals were placed on a heated table under a lamp at approximately 37 °C. Parasternal long axis (PSLAX) and short axis (SAX) images were recorded and then analyzed on a separate workstation with VevoLab software (Vevo 2100, v1.6, Visualsonic, Toronto, Canada). From the M-mode images, left ventricular cavity size for systole and diastole (LV dia;s, LV dia;d, LV Vol;s and LV Vol;d) were measured. Heart rate (HR), stroke volume (SV), and the echocardiographic calculation for fractional shortening (FS), ejection fraction (EF) and cardiac output (CO) were obtained using the Vevo software. Treatment and control groups were analyzed on the same day by the same technician in order to minimize variation. For VevoStrain analysis, B-mode images of 300 frames at greater than 200 frames/second were used.\nas §3\nTo explore whether KLF5 inhibition holds therapeutic potential against myocardial I/R injury, WT mice were subjected to 30 minutes of ischemia, followed by 24 hours of reperfusion while being treated with a pharmacological KLF5 inhibitor, namely ML264. ML264 (25 mg/kg/12 h) was dissolved in 10% DMSO, 10% Tween 80, and 80% normal saline, and was administered by intraperitoneal injection in mice.\nA first dose of ML264 was administered five minutes before the reopening of the coronary artery, due to the clinical application that this time point holds, as well as previous reports about the importance of this time point regarding the pharmacological possibilities for the cardioprotection against I/R injury. 2D echocardiography was performed after 24 hours of reperfusion."}, "Col1a1": {"tested_on": "Col1a1", "assay": "Col1a1 mRNA in chronic model of I/R injury (real-time PCR)", "type": "in vivo, mouse (C57BL/6)", "details": "4 weeks post-I/R; vs IR group treated with vehicle", "method": "as §1, §2"}}, "data": [{"smiles": "CN(C(=O)CNC(=O)/C=C/c1cccc(Cl)c1)C1CCS(=O)(=O)CC1", "note": "[ML264]", "values": [{"measurement": "Glut1 levels (mRNA)", "setting": "Glut1", "value": "trend towards reduced"}, {"measurement": "infarct size", "setting": "[1]", "value": "significant reduction"}, {"measurement": "global circumferential strain", "setting": "[2]", "value": "significant increase"}, {"measurement": "lateral wall circumferential strain", "setting": "[2]", "value": "significant increase"}, {"measurement": "lateral wall circumferential strain rate", "setting": "[2]", "value": "significant increase"}, {"measurement": "lateral wall radial strain", "setting": "[2]", "value": "significant increase"}, {"measurement": "lateral wall radial strain rate", "setting": "[2]", "value": "significant increase"}, {"measurement": "mRNA levels of Col1a1", "setting": "Col1a1", "value": "decreased"}]}]}
